Measurements published in PubChem BioAssay AID463199 (Broad Institute, 2010).
Calls of active or inactive are those of the source.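 Rule for the calls: active = AC50, the dose giving half-maximal effect, exceeds a fixed cutoff for a compound that rescues yeast growth under heat; inactive = the rest, inconclusive results apart.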

Each compound was assayed on S. cerevisiae Burl-1 ts mutant growth, BacTiter-Glo, 38.5C 24 h (assay: growth induction of Burl-1 ts yeast mutant, dose response, counter-screen for SUMOylation pathway inhibitor project, whole organism, S. cerevisiae, luminescence (AID 463199)).
For `CCOc1ccc(NC(=O)C2CC(=O)N3CCCN=C3S2)cc1` (configuration not stated), the AC50 was > 42 µM (inactive).
In the case of `Cc1cc(C)nc(SCC2COc3ccccc3O2)n1` (configuration not stated), the AC50 is reported as > 42 µM (inactive).
In the case of `CCC(C)[C@H](N)c1nnc(SCC(=O)Nc2cccc(Cl)c2)o1` (some centres not stated), the AC50 is reported as > 42 µM (inactive).
`CCC(C)(C)NC(=O)C(c1ccc(C)cc1)N(CC1CCCO1)C(=O)CNC(=O)c1cccs1` (configuration not stated) was tested, and the AC50 was > 42 µM (inactive).
In the case of `CCn1c(SCC(=O)OC)nnc1-c1ccncc1`, the AC50 is reported as > 42 µM (inactive).
In the case of `O=C1c2ccccc2NC(c2ccccc2O)N1O` (configuration not stated), the AC50 is reported as > 42 µM (inactive).
In the case of `C[C@@]12C(=O)Nc3cc(Cl)ccc3C(=O)N1[C@H]1c3ccccc3OC[C@@H]1[C@@H]2c1ccccc1`, the AC50 is reported as > 42 µM (inactive).
`COc1ccc(NC(=O)c2ccc(-c3csc(C)n3)cc2)cc1` was tested, and the AC50 was > 42 µM (inactive).
With `O=c1[nH]cnc2ccc([N+](=O)[O-])cc12` the AC50 was > 42 µM (inactive).
For `COC(=O)c1ccccc1NC(=O)CSc1nnnn1CC(=O)O`, the AC50 was > 42 µM (inactive).
For `CSc1nc2ccc(NC(=O)c3c(F)cccc3F)cc2s1`, the AC50 was > 42 µM (inactive).
For `CCN(CC)c1nc2c(c(=O)[nH]c(=O)n2C)n1CCOc1ccccc1`, the AC50 was > 42 µM (inactive).
With `O=C(COC(=O)C1CC(=O)N(Cc2ccccc2)C1)Nc1ccccc1F` (configuration not stated) the AC50 was > 21 µM (inactive).
In the case of `COc1ccccc1NC(=O)NCCc1c[nH]c2ccccc12`, the AC50 is reported as > 42 µM (inactive).
For `Cc1ccc(SCCC(=O)Nc2ccc(OCc3ccccc3)cc2)cc1`, the AC50 was > 42 µM (inactive).
In the case of `CC1=CC(=O)C(C(C)C)=C/C1=N/OS(=O)(=O)c1ccccc1`, the AC50 is reported as > 50 µM (inactive).
With `O=C(C1CCCN(S(=O)(=O)c2cnc[nH]2)C1)N1CCN(c2ccc(Cl)cc2)CC1` (configuration not stated) the AC50 was > 42 µM (inactive).
For `O=C1NC2(CCCCO2)CO1` (configuration not stated), the AC50 was > 42 µM (inactive).
For `CCOC(=O)c1[nH]c2ccc(Br)cc2c1NC(=O)CCN1CCOCC1`, the AC50 was > 42 µM (inactive).
`COc1cccc(C2/C(=C(/O)c3ccccc3)C(=O)C(=O)N2Cc2ccco2)c1` (configuration not stated) was tested, and the AC50 was > 42 µM (inactive).
For `COc1ccc(N(C(=O)c2ccco2)C(C(=O)NC2CCCCC2)c2ccccc2)cc1` (configuration not stated), the AC50 was > 42 µM (inactive).
For `C/C(O)=C(\N=Nc1cc(C)ccc1O)C(N)=O`, the AC50 was > 42 µM (inactive).
In the case of `COC(=O)c1c(C)n(Cc2ccc3c(c2)OCO3)c2ccc(O)cc12`, the AC50 is reported as > 42 µM (inactive).
In the case of `Cc1nc(N)c(Cc2ccccc2F)c(N)n1`, the AC50 is reported as > 42 µM (inactive).
`CC(Oc1ccccc1)C(=O)Nc1ccccc1O` (configuration not stated) was tested, and the AC50 was > 42 µM (inactive).
In the case of `O=C(NCCc1cnccn1)C1CCC(=O)N(Cc2ccc(Cl)cc2)C1` (configuration not stated), the AC50 is reported as > 42 µM (inactive).
`O=C(c1cc2c(ccc3ccccc32)oc1=O)N1CCCC1` was tested, and the AC50 was > 42 µM (inactive).
`O=C(O)c1c(C(=O)O)c(-c2ccc(F)cc2)n2c1CCC2` was tested, and the AC50 was > 42 µM (inactive).
`Cc1ccc(C(=O)O)cc1N=Cc1cc(Br)cc(Br)c1O` was tested, and the AC50 was > 42 µM (inactive).
In the case of `Cc1ccc(N/N=C2/CCCNC2=O)cc1`, the AC50 is reported as > 42 µM (inactive).
In the case of `Cc1nn(C(C)(C)C)c(OC(=O)c2ccc3c(c2)OCO3)c1S(=O)(=O)c1ccccc1`, the AC50 is reported as > 42 µM (inactive).
With `Cc1ccc(N(C(=O)Cn2nnc3ccccc32)C(C(=O)NC2CCCCC2)c2cn(C)nc2C)cc1` (configuration not stated) the AC50 was > 21 µM (inactive).
With `COc1cc2ccccc2cc1C(=O)Nc1ccc(CN2CCOCC2)cc1` the AC50 was > 42 µM (inactive).
With `Cc1sc2nc(N)sc2c1C` the AC50 was > 42 µM (inactive).
In the case of `Cc1c(OC(C)C(=O)N2C[C@H]3C[C@@H](C2)c2cccc(=O)n2C3)ccc2c3c(c(=O)oc12)CCCC3` (some centres not stated), the AC50 is reported as > 42 µM (inactive).
For `CCOC(=O)C1=C(C)Nc2ncnn2C1/C=C/c1ccccc1` (configuration not stated), the AC50 was > 42 µM (inactive).
In the case of `COc1cccc(OC)c1OCC(O)CN1CCN(c2ccccc2)CC1` (configuration not stated), the AC50 is reported as > 42 µM (inactive).
In the case of `COc1ccc(-c2cn(-c3ccc(C)cc3)c(=O)n2CC(=O)Nc2ccc(OC)c(OC)c2)cc1`, the AC50 is reported as > 42 µM (inactive).
With `N[C@@H](Cc1ccc(O)c(I)c1)C(=O)O` the AC50 was > 42 µM (inactive).
With `O=C(O)c1ccc(S(=O)(=O)N2CCN(c3ccccn3)CC2)cc1` the AC50 was > 42 µM (inactive).
For `Nc1cc(Cl)ccc1N1CCOCC1`, the AC50 was > 42 µM (inactive).
For `Cc1ccc(CNC(=O)CCn2cc(-c3ccc(C)cc3)nc2CCN)cc1`, the AC50 was > 42 µM (inactive).
For `Fc1ccc2nc(C3CCN(Cc4nc(CC5CC5)no4)CC3)[nH]c2c1`, the AC50 was > 42 µM (inactive).
In the case of `Cc1ccc(/C=C2\SC(N3CCCC3)=NC2=O)cc1`, the AC50 is reported as > 42 µM (inactive).
`Cc1nn(C)c(C)c1/C=N/NC(=O)C(C)(C)Oc1ccc(Cl)cc1` was tested, and the AC50 was > 42 µM (inactive).
In the case of `O=C(N/N=C/c1cccc([N+](=O)[O-])c1)C1COc2ccccc2O1` (configuration not stated), the AC50 is reported as > 42 µM (inactive).
In the case of `S=C(Nc1ccc(Cl)cc1)N1CCN(Cc2ccccc2)CC1`, the AC50 is reported as > 42 µM (inactive).
With `COCCn1c(N)c(N(Cc2ccccc2)C(=O)CN2C(=O)NC(C)(c3ccccc3)C2=O)c(=O)[nH]c1=O` (configuration not stated) the AC50 was 39.8 µM.
In the case of `COc1ccccc1-n1nnnc1SCC(=O)Nc1ccc(C)c(N)c1`, the AC50 is reported as > 42 µM (inactive).
`COc1ccccc1N1C(=O)c2ccccc2NC1C(OC)OC` (configuration not stated) was tested, and the AC50 was > 42 µM (inactive).
With `Cc1nn(CC(N)=O)c(=O)c2ccccc12` the AC50 was > 42 µM (inactive).
With `CCOC(=O)CN1NC2(CCC(C(C)(C)C)CC2)NC1=S` (configuration not stated) the AC50 was > 42 µM (inactive).
For `O=C(CCNS(=O)(=O)c1cccc2nsnc12)NCCC1=CCCCC1`, the AC50 was > 42 µM (inactive).
With `CCCOc1ccccc1C1NC(=O)NC(C)=C1C(=O)OCCOCC` (configuration not stated) the AC50 was > 42 µM (inactive).
`COc1ccc2c(c1)OC[C@H]1[C@H]2N2C(=O)c3cc(OC)c(OC)cc3NC(=O)[C@@]2(C)[C@H]1c1ccccc1` was tested, and the AC50 was > 42 µM (inactive).
`Cc1ccccc1P(=O)(CO)c1ccccc1C` was tested, and the AC50 was > 42 µM (inactive).
In the case of `COc1ccc(C)cc1NC(=O)Cn1c(=O)oc2ccccc21`, the AC50 is reported as > 42 µM (inactive).
In the case of `Cn1c(=O)[nH]c(=O)c2c1nc(Sc1ccccc1)n2CCc1ccccc1`, the AC50 is reported as > 42 µM (inactive).
In the case of `CCCCNC(=O)N1CCC(CCC(=O)N(C)Cc2ccccc2)CC1`, the AC50 is reported as > 42 µM (inactive).
In the case of `CCCCC(=O)NC(=S)Nc1cccc(C(=O)O)c1`, the AC50 is reported as > 42 µM (inactive).
For `CC(C)(C)n1cnc2cc(NC(=O)c3ccc(Cl)cc3)ccc21`, the AC50 was > 42 µM (inactive).
In the case of `NS(=O)(=O)c1ccc(CCNC(=O)c2ccc([N+](=O)[O-])s2)cc1`, the AC50 is reported as > 42 µM (inactive).
`Cn1c(CSc2nc3ccccc3s2)nnc1SCC(=O)NCCN1CCOCC1` was tested, and the AC50 was > 42 µM (inactive).
In the case of `CCOc1ccc(/C=N/NS(=O)(=O)c2ccc(C)cc2)cc1OC`, the AC50 is reported as > 42 µM (inactive).
In the case of `N#CC(C#N)=CN=c1ccn(Cc2ccc(Cl)cc2Cl)cc1`, the AC50 is reported as > 42 µM (inactive).
`Cc1cc(NC(=O)c2ccc3c(c2)C(=O)N(C(C)(C)C)C3=O)no1` was tested, and the AC50 was > 42 µM (inactive).
With `CC(C)(C)c1ccc(-c2nc(C=O)c3ccccn23)cc1` the AC50 was > 42 µM (inactive).
`CC/C(=N\Nc1ccc([N+](=O)[O-])cc1)c1ccccc1` was tested, and the AC50 was > 42 µM (inactive).
Work on `COc1cc(CN2CCC(Oc3cc(C(=O)NC4CC4)ccc3OC)CC2)cc(OC)c1` yielded an AC50 of 16.9 µM.
In the case of `O=C(CSc1nc(-c2ccccc2)cc(=O)[nH]1)Nc1ccc(Br)cc1`, the AC50 is reported as > 42 µM (inactive).
With `COc1ccc(-c2nc3c(c(SCC(=O)N4CCOCC4)n2)Cc2c(CO)cnc(C)c2O3)cc1` the AC50 was > 42 µM (inactive).
`O=C1c2ccccc2C(=O)N1CCCCSc1nc2ccccc2c(=O)n1CCCN1CCOCC1` was tested, and the AC50 was > 42 µM (inactive).
